In one data set the test system is HFD fed mice. The experiment in a line: Pyruvate tolerance test (PTT). Conditions: HFD 17 weeks. Type of data set: in vivo. As for the experimental part:
(§1) All mice were purchased from Jackson laboratories and housed under a 12 h light/12 h dark cycle at 22° C. Before handling, mice were allowed to acclimate for at least 1 week in our animal facility. For in vivo studies with DIO mice, males 6-8 weeks old were fed HFD for the indicated time. For drug administration, SR-18292 was re-suspended in a 10% DMSO/10% Tween80/80% PBS solution at a final concentration of 6-12 mg/ml. Metformin was re-suspended in the same solution at a 20 mg/ml concentration. SR-18292 was injected via I.P. for 3 days between 4-5 pm and food was removed on day 3 at 5 pm. […] Metformin was administered via oral gavage. […] Insulin tolerance test was performed following the same dosing protocol, but mice were fasted for 4 hours after the forth injection before performing the test. Insulin was injected via I.P. (0.5 U/Kg) and blood glucose was measured every 20 minutes. Glycemia was measured by tail bleed using a glucometer (OneTouch). For all experiments, age- and body weight-matched animals were used. For protein, RNA extracts and biochemistry studies, livers were removed following each experiment and snap frozen in liquid nitrogen. For information on number of animals in each experiment please refer to FIGS. 4, 5 and S5 legends. All studies were performed according to protocols approved by Beth Israel Deaconess Medical Center's Animal Care and Use Committee.

Data set [1] deals with Pck1 and G6pc gene expression. Briefly: Gluconeogenic gene and protein expression in primary hepatocytes (qPCR, western). The data set is classed as cell-based, mouse. As for the experimental part: (§2) For measurement of acetylation, gene expression and glucose production SR-18292 ([…]) was added to cells overnight and fresh compound was added the following day for additional 3 h before collecting the cells (for total of ˜18 h treatment). Where insulin and glucagon stimulation were performed, the medium was changed to starvation medium (DMEM, 0.2% BSA, 2 mM sodium pyruvate, and 1% penicillin/streptomycin) with fresh compound for the last 3 h and cells were stimulated with either 100 nM insulin or 200 nM glucagon for an extra 1.5 h. For glucose measurements following PGC-1α over expression cells were incubated for the last 3 h in glucose-free medium (phenol-red/glucose free DMEM, 0.2% BSA, 2 mM sodium pyruvate and 20 mM sodium lactate or 10 mM glycerol in case glycerol was used as substrate). For glucose measurements following glucagon stimulation cells were incubated for the last 4 h in the same glucose-free medium that also contained glucagon (200 nM). The glucose level in the medium was measured using a glucose assay kit from Eton Bioscience Inc. by adding […] of assay buffer to […] of medium followed by 15 min incubation at 37° C. Absorbance was measured at 490 nm.
siRNA oligos against mouse Ppargc1a were purchased from OriGene (SR420231). Hepatocytes were transfected with a 1:1:1:mixture of 3 unique 27mer siRNA duplexes ([…]) using Lipofectamin RNAiMax (Invitrogen) immediately upon seeding with plating medium. The following morning cells were washed with PBS and medium was changed to maintenance medium. In the afternoon, cells were transfected again and compound treatment started.
(§3) Total RNA was extracted from cells or pulverized liver using TRIzol reagent (Ambion, Life Technologies), followed by cDNA preparation from 2 μg of total RNA with a High-Capacity cDNA Reverse Transcription Kit (Applied Biosystems). cDNA products were quantified by real-time PCR using Power SYBR Green PCR Master Mix (Applied Biosystems) on a CFX384 Real-Time PCR System (Bio-Rad). To calculate IC50 from C-80 dose response, curves were fit to the hill equation in a similar manner used to calculate estimated AC50 from the high-throughput qPCR screen. However, unlike the curves from the qPCR high-throughput screen, values of relative repression were used rather than of delta-Ct.

Data set [2] in a line: Liver and serum lipids, metabolites and liver gene expression in treated HFD mice. The data set is classed as in vivo. As to the method:
as §3
Serum samples were gathered from blood collected by cardiac puncture. Insulin was measured with Ultra Sensitive Mouse Insulin ELISA Kit (Crystal Chem, 90080). Kits used to measure alanine transaminase (EALT-100), aspartate transaminase (EASTR-100), lactate dehydrogenase (DLDH-100) were purchased from Bioassay Systems. Kits used to measure lactate (MAK 064), b-hydroxybutyrate (MAK 041), Triglycerides (TR0100) were purchased from Sigma. Kit used to measure cholesterol (C7510) was purchased from Pointe Scientific. Kit used to measure non-esterified fatty acids was purchased from Wako.

Data set [3] deals with CREB, TORC2, Akt phosphorylation. The experiment in a line: Western blot of glucagon and insulin signaling in hepatocytes. The data set is classed as cell-based, mouse. As to the method: as §2
For orientation: In western blotting, separated proteins are transferred to a membrane and probed.

Data set [4] relates to Pck1 gene expression in liver. The experiment in a line: qPCR of gluconeogenic genes in liver of treated mice. To be noted: livers from fasted treated mice. The data set is classed as in vivo. As to the method: All mice were purchased from Jackson laboratories and housed under a 12 h light/12 h dark cycle at 22° C. Before handling, mice were allowed to acclimate for at least 1 week in our animal facility. For in vivo studies with DIO mice, males 6-8 weeks old were fed HFD for the indicated time. For drug administration, SR-18292 was re-suspended in a 10% DMSO/10% Tween80/80% PBS solution at a final concentration of 6-12 mg/ml. Metformin was re-suspended in the same solution at a 20 mg/ml concentration. SR-18292 was injected via I.P. for 3 days between 4-5 pm and food was removed on day 3 at 5 pm. […] Metformin was administered via oral gavage. […] Insulin tolerance test was performed following the same dosing protocol, but mice were fasted for 4 hours after the forth injection before performing the test. Insulin was injected via I.P. (0.5 U/Kg) and blood glucose was measured every 20 minutes. Glycemia was measured by tail bleed using a glucometer (OneTouch). […] Total RNA was extracted from cells or pulverized liver using TRIzol reagent (Ambion, Life Technologies), followed by cDNA preparation from 2 μg of total RNA with a High-Capacity cDNA Reverse Transcription Kit (Applied Biosystems). cDNA products were quantified by real-time PCR using Power SYBR Green PCR Master Mix (Applied Biosystems) on a CFX384 Real-Time PCR System (Bio-Rad). […]
Background: In qPCR the cycle at which signal appears reflects the starting amount.

Data set [5] in a line: Food intake and body weight of treated mice. Type of data set: in vivo. As to the method:
as §1

Molecules are shown by their SMILES. Entries after “also recorded” stand apart in the source; their conditions may differ.

Turning to `Cc1ccc(CN(CC(O)COc2cccc3[nH]ccc23)C(C)(C)C)cc1` (stereo not shown) [SR-18292, 1-((1H-indol-4-yl)oxy)-3-(tert-butyl(4-methylbenzyl)amino)propan-2-ol], in the data set with HFD fed mice, the “defects in glucose production relative to metformin” value is on record as “comparable to that mediated by metformin treatment” and the “glucose levels after pyruvate injection” value is listed as “significantly reduced”. For the same compound, the “gene expression after short treatment” value in data set [1] (3 hr treatment) is given as “no effect”. For the same compound, the “gluconeogenic gene and protein expression induced by ectopic PGC-1α” value in data set [1] (Ad-PGC-1α infected hepatocytes) is listed as “significantly reduced”. In data set [1] (glucagon 200 nM), the “glucagon-stimulated Pck1 and G6pc gene expression” value is listed as “significantly reduced”. In addition, the PEPCK protein levels result in data set [1] (hepatocytes infected with Ad-PGC-1α) is listed as “reduced”. Further, the “suppression of Pck1 and G6pc after siRNA knock down of PGC-1α” value in data set [1] (siRNA against Ppargc1a) was “significantly impairs the ability of SR-18292 to suppress Pck1 and G6pc”. The “serum lactate and ketone bodies (β-hydroxybutyrate)” value in data set [2] (HFD 4 weeks) is given as “not changed; also recorded: not altered”. Moreover, in data set [2] (HFD 13 weeks), the “serum levels of TG, free fatty acids and cholesterol” value is given as “not significantly altered”; the “transcriptional lipid metabolic profile in liver” value was “not significantly altered; also recorded: not changed”. For the same compound, the “liver TG and cholesterol levels” value in data set [2] (HFD 17 weeks, also after prolonged treatment) is listed as “not changed”. For the same compound, in data set [3] (glucagon 200 nM), the “glucagon-induced phosphorylation of CREB and dephosphorylation of CRTC2” value is given as “without disrupting”. The “cell autonomous enhancement of insulin signaling (Akt S473)” value in data set [3] (insulin 100 nM) was “not observed”. Moreover, the “gluconeogenic gene expression (Pck1) in liver” value in data set [4] is listed as “inhibited”. Also, in data set [5] (first 48 hours of treatment), the food intake entry is given as “neither food intake nor body weight were changed”. In data set [5] (mouse, in vivo), the body weight result was “neither food intake nor body weight were changed”.
